From US12617779B2, “Self degradation-type CDK9 inhibitor prodrug and liposome encapsulating same” (Sumitomo Pharma Co., Ltd., priority 2021, dated 2026)

Experiments:
[1] = Evaluation of conversion rate to active form in BALB/c mouse plasma (Experimental Example 3); format: in vitro ADME; settings: 0.2 μmol/L, 37° C.; for Conversion to Alvocidib in BALB/c mouse plasma: Examples up to 60 minutes, Comparative Examples up to 120 minutes; for Residual rate (%) of test compound: Mouse plasma
Method in brief: (§1)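 Test compound at 0.2 μmol/L was incubated at 37° C in human or BALB/c mouse plasma and sampled at 0, 30 and 60 min or at 0, 60 and 120 min. Compound and Alvocidib were quantified by LC-MS/MS peak area. Attrition is relative to 0 min; conversion is relative to 0.2 μmol/L Alvocidib reference.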

[2] = Evaluation of conversion rate to active form in human plasma (Experimental Example 3); format: in vitro ADME; settings: 0.2 μmol/L, 37° C.; for Residual rate (%) of test compound: Human plasma; for Conversion to Alvocidib in human plasma: Examples up to 60 minutes, Comparative Examples up to 120 minutes
Method in brief: as §1

[3] = Stability evaluation of solution formulation (Experimental Example 2); format: physicochemical; settings: for Stability / conversion to Alvocidib in solution formulation at pH 3: pH 3, 5° C.; for Stability / conversion to Alvocidib in solution formulation at pH 3 / Stability / conversion to Alvocidib in solution formulation at pH 4: up to 4 weeks; for Stability / conversion to Alvocidib in solution formulation at pH 4: pH 4, 5° C.; for Production rate of Alvocidib / Residual rate: solution formulation
Procedure: For Example 1, Example 2, Example 5, Example 6, Comparative Example 13 and Comparative Example 14, the attrition rate of the test compound and the conversion rate of the test compound to Alvocidib in a solution formulation were calculated by the following method.
Example 1, Example 2, Example 5, Example 6, Comparative Example 13 and Comparative Example 14 were each added to buffer solutions adjusted to pH 3.0, 4.0 and 5.0, respectively, at a concentration of 0.1 mg/mL, and left at 5° C. After 0, 1, 2 and 4 weeks, the residual rates of the compounds of Example 1, Example 2, […], Comparative Example 13 and Comparative Example 14 and the production rate of Alvocidib were determined by HPLC.
The buffer solutions used at each pH are as follows. • pH 3.0: 5 mM tartrate buffer solution/10% sucrose solution (pH 3.0) • pH 4.0: 5 mM tartrate buffer solution/10% sucrose solution (pH 4.0) • pH 5.0: 5 mM tartrate buffer solution/10% sucrose solution (pH 5.0)
The measurement conditions for HPLC are as follows.
• column: Acquity UPLC BEH C18, 1.7 um, 50×2.1 mm • column temperature: 40° C. • mobile phase: • A: water containing 0.1% trifluoroacetic acid • B: acetonitrile • A/B (min): • 80/20(0)→75/25(3)→0/100(3.5)→0/100(4)→80/20(4.01)→80/20(5) • flow rate: 0.8 mL/min • detection: ultraviolet visible detector, measurement wavelength 254 nm • injection: 3 μL

CCCN(C[C@@H]1CCCCN1)C(=O)Oc1cc(O)c2c(=O)cc(-c3ccccc3Cl)oc2c1[C@H]1CCN(C)C[C@H]1O [Example 5, 2-(2-chlorophenyl)-5-hydroxy-8-[(3S,4R)-3-hydroxy-1-methylpiperidin-4-yl]-4-oxo-4H-1-benzopyran-7-yl {[(2S)-piperidin-2-yl]methyl}propylcarbamate]
Conversion to Alvocidib in BALB/c mouse plasma [1]: proceeded rapidly
Residual rate (%) of test compound ([1]; 0 min): 100%
Residual rate (%) of test compound ([1]; 30 min): 36%
Residual rate (%) of test compound ([1]; 60 min): 8%
Residual rate (%) of test compound ([2]; 0 min): 100%
Residual rate (%) of test compound ([2]; 30 min): 1%
Residual rate (%) of test compound ([2]; 60 min): 0%
Conversion to Alvocidib in human plasma [2]: proceeded rapidly
Stability / conversion to Alvocidib in solution formulation at pH 3 [3]: stable
Stability / conversion to Alvocidib in solution formulation at pH 4 [3]: stable
Production rate of Alvocidib ([3]; pH3.0, 0 week): 0.2%
Residual rate ([3]; pH3.0, 0 week): 98.2%
Production rate of Alvocidib ([3]; pH3.0, 1 week): 0.2%
Residual rate ([3]; pH3.0, 1 week): 98.2%
Production rate of Alvocidib ([3]; pH3.0, 2 week): 0.3%
Residual rate ([3]; pH3.0, 2 week): 98.1%
Production rate of Alvocidib ([3]; pH3.0, 4 week): 0.3%
Residual rate ([3]; pH3.0, 4 week): 98.1%
Production rate of Alvocidib ([3]; pH4.0, 0 week): 0.2%
Residual rate ([3]; pH4.0, 0 week): 98.2%
Production rate of Alvocidib ([3]; pH4.0, 1 week): 0.3%
Residual rate ([3]; pH4.0, 1 week): 98.2%
Production rate of Alvocidib ([3]; pH4.0, 2 week): 0.4%
Residual rate ([3]; pH4.0, 2 week): 98.1%
Production rate of Alvocidib ([3]; pH4.0, 4 week): 0.5%
Residual rate ([3]; pH4.0, 4 week): 98.1%
Production rate of Alvocidib ([3]; pH5.0, 0 week): 0.4%
Residual rate ([3]; pH5.0, 0 week): 98.1%
Production rate of Alvocidib ([3]; pH5.0, 1 week): 1.2%
Residual rate ([3]; pH5.0, 1 week): 97.2%
Production rate of Alvocidib ([3]; pH5.0, 2 week): 2.1%
Residual rate ([3]; pH5.0, 2 week): 96.6%
Production rate of Alvocidib ([3]; pH5.0, 4 week): 3.7%
Residual rate ([3]; pH5.0, 4 week): 95.0%

CCN(C[C@H]1CCCCN1)C(=O)Oc1cc(O)c2c(=O)cc(-c3ccccc3Cl)oc2c1[C@H]1CCN(C)C[C@H]1O [Example 2, 2-(2-chlorophenyl)-5-hydroxy-8-[(3S,4R)-3-hydroxy-1-methylpiperidin-4-yl]-4-oxo-4H-1-benzopyran-7-yl ethyl{[(2R)-piperidin-2-yl]methyl}carbamate]
Conversion to Alvocidib in BALB/c mouse plasma [1]: proceeded rapidly
Residual rate (%) of test compound ([1]; 0 min): 100%
Residual rate (%) of test compound ([1]; 30 min): 25%
Residual rate (%) of test compound ([1]; 60 min): 4%
Residual rate (%) of test compound ([2]; 0 min): 100%
Residual rate (%) of test compound ([2]; 30 min): 4%
Residual rate (%) of test compound ([2]; 60 min): 2%
Conversion to Alvocidib in human plasma [2]: proceeded rapidly
Stability / conversion to Alvocidib in solution formulation at pH 3 [3]: stable
Stability / conversion to Alvocidib in solution formulation at pH 4 [3]: stable
Production rate of Alvocidib ([3]; pH3.0, 0 week): 0.0%
Residual rate ([3]; pH3.0, 0 week): 96.5%
Production rate of Alvocidib ([3]; pH3.0, 1 week): 0.0%
Residual rate ([3]; pH3.0, 1 week): 96.5%
Production rate of Alvocidib ([3]; pH3.0, 2 week): 0.0%
Residual rate ([3]; pH3.0, 2 week): 96.4%
Production rate of Alvocidib ([3]; pH3.0, 4 week): 0.1%
Residual rate ([3]; pH3.0, 4 week): 96.5%
Production rate of Alvocidib ([3]; pH4.0, 0 week): 0.0%
Residual rate ([3]; pH4.0, 0 week): 96.4%
Production rate of Alvocidib ([3]; pH4.0, 1 week): 0.1%
Residual rate ([3]; pH4.0, 1 week): 96.5%
Production rate of Alvocidib ([3]; pH4.0, 2 week): 0.2%
Residual rate ([3]; pH4.0, 2 week): 96.4%
Production rate of Alvocidib ([3]; pH4.0, 4 week): 0.3%
Residual rate ([3]; pH4.0, 4 week): 96.4%
Production rate of Alvocidib ([3]; pH5.0, 0 week): 0.1%
Residual rate ([3]; pH5.0, 0 week): 96.4%
Production rate of Alvocidib ([3]; pH5.0, 1 week): 1.1%
Residual rate ([3]; pH5.0, 1 week): 95.5%
Production rate of Alvocidib ([3]; pH5.0, 2 week): 1.9%
Residual rate ([3]; pH5.0, 2 week): 94.5%
Production rate of Alvocidib ([3]; pH5.0, 4 week): 3.1%
Residual rate ([3]; pH5.0, 4 week): 93.0%
